Data published in patent US10323007B1, “N2N N4-disubstituted quinazoline-2,4-diamines and uses thereof” (University of South Florida, priority 2016, dated 2019).
≈ marks a conversion by molar mass, not a printed value. Like-named read-outs stand apart in the source and are kept apart here.

Assays:
[1] = tested on: A. baumannii 1652; experiment: minimal bactericidal concentration (MBC) assay, strain 1652; format: cell-based; conditions: Acinetobacter baumannii, Table 8, read-out: MBC90 1652
From the text: (§1) Lead quinazolines 4, 5, 26, 29, 27, and 30 were selected to be further evaluated for antimicrobial effects. The first assay utilized was a minimal bactericidal concentration (MBC) assay, to assess whether leads compounds were bacteriostatic or bactericidal. The six lead agents were screened to identify their MBC90 towards each of the six A. baumannii isolates used in the SAR studies (Table 8), however for simplicity only the representative data for isolate 1646 is detailed below (Table 6). […] Further to this, we were able to obtain complete eradication of bacterial growth for these two compounds at 1 μM for 24 and 5 μM for 25.
(§2) MIC and MBC assays were performed in this study as documented by us previously.^17,23,24,25 The A. baumannii strains used are detailed in Table 7.

[2] = tested on: A. baumannii 1650 biofilm; experiment: biofilm eradication determination assay, strain 1650; format: cell-based, Acinetobacter baumannii; conditions: 90% biofilm eradication, Table 8
Procedure: (§3) These assays were performed as described by us previously,^26,24 as follows. Each of the A. baumannii strains were grown overnight in Mueller Hinton Broth (MHB). The next day these were used to seed fresh MHB to an OD600 of 0.5, with 150 μL then added to the wells of a 96 well plate and grown for 24 hours at 37° C. After 24 hours, the planktonic bacteria were carefully removed and fresh MHB was added with increasing concentrations of lead quinazolines. After incubation at 37° C. for 24 hours, planktonic cells were removed and biofilms were washed three times with phosphate buffered saline (PBS). Biofilms were then resuspended in PBS and plated for cell viability on tryptic soy agar. Biofilm recovery was assessed compared to no drug controls, and determined as percent eradication. This was used to determine MBEC90 values (Minimal Biofilm Eradication Concentration), where the viability of cells within the biofilm was reduced by 90%.

[3] = tested on: A. baumannii 1651 biofilm; experiment: biofilm eradication determination assay, strain 1651; format: cell-based, Acinetobacter baumannii; conditions: 90% biofilm eradication, Table 8
Procedure: as §3

[4] = tested on: human HepG2 cells; format: cell-based
Procedure: Cytotoxicity assays were performed using human HepG2 cells (human liver epithelial with hepatocellular carcinoma), as described by us previously.^17,24 Cells were cultured in Dulbecco's modified eagle medium (DMEM), supplemented with 10% fetal bovine serum and 1% penicillin-streptomycin for 3 days at 37° C. and 5% CO2. Cells were then diluted to 1×10^5 ml^−1 using fresh DMEM and added to 96 well tissue culture plates at a volume of 100 μL. Plates were incubated for 24 hours at 37° C. and 5% CO2, allowing the cells to adhere to the plastic. […] Plates were then incubated for 48 hours at 37° C. and 5% CO2. After 48 hours the DMEM was removed and 100 μL of new media was added containing MTT (3-(4, 5-dimethylthiazol-2-yl)-2, 5-diphenyltetrazolium bromide), followed by incubation for four hours at 37° C. and 5% CO2. […] Lead compounds were solvated in 100% DMSO for these studies, which served as the negative control. LD50 values were determined for each compound by comparison to vehicle only controls.

[5] = tested on: A. baumannii 1403 biofilm; experiment: biofilm eradication determination assay, strain 1403; format: cell-based, Acinetobacter baumannii; conditions: 90% biofilm eradication, Table 8
Procedure: as §3

[6] = tested on: A. baumannii 1652 biofilm; experiment: biofilm eradication determination assay, strain 1652; format: cell-based, Acinetobacter baumannii; conditions: 90% biofilm eradication, Table 8
Procedure: as §3

[7] = tested on: A. baumannii 1646; experiment: murine model of lethal peritonitis; format: in vivo, mice; conditions: 2 mg kg^-1 intraperitoneal, one hour post challenge, 5 days
Procedure: As a final assessment, we used a murine model of lethal A. baumannii infection to determine the efficacy of quinazolines in vivo. This was performed using frontrunner 5, which had the most promising properties from all of our biological testing. Accordingly, mice were inoculated with a lethal dose of A. baumannii via intraperitoneal injection on the right side of the abdomen. One hour post challenge, mice were treated with an intraperitoneal injection of 2 mg kg^−1 of frontrunner 5 on the left side of the abdomen. As a control, we also performed similar testing using 30 mg kg^−1 of tigecycline, which we already know our test strain to be susceptible to in vitro.
Characteristics of pre-moribund state include: hunched posture, rapid, shallow and/or labored breathing, ruffled fur, lethargy, failure to respond to stimuli, soiled anogenital area, paralysis, paresis, head tilt, circling, vocalizations, non-purposeful movements, and/or were unable to eat or drink. Those mice reaching this state prior to the completion of the 5-day infection period were euthanized. The number of mice surviving between control and treatment groups was compared and analyzed for statistical significance using a log-rank (Mantel-Cox) test.

[8] = tested on: A. baumannii 1651; experiment: minimal bactericidal concentration (MBC) assay, strain 1651; format: cell-based; conditions: Acinetobacter baumannii, Table 8, read-out: MBC90 1651
From the text: as §1, §2

[9] = tested on: A. baumannii 1646; experiment: MIC assay, strain 1646; format: cell-based, Acinetobacter baumannii
Procedure: as §2

[10] = tested on: A. baumannii 1649 biofilm; experiment: biofilm eradication determination assay, strain 1649; format: cell-based, Acinetobacter baumannii; conditions: 90% biofilm eradication, Table 8
Procedure: as §3

[11] = tested on: A. baumannii 1646 biofilm; experiment: biofilm eradication determination assay, strain 1646; format: cell-based, Acinetobacter baumannii
Procedure: as §3

[12] = tested on: A. baumannii 1652; experiment: MIC assay, strain 1652; format: cell-based, Acinetobacter baumannii; conditions: strain 1652
Procedure: as §2

[13] = tested on: A. baumannii 1651; experiment: MIC assay, strain 1651; format: cell-based, Acinetobacter baumannii; conditions: strain 1651
Procedure: as §2

[14] = tested on: A. baumannii 1649; experiment: MIC assay, strain 1649; format: cell-based, Acinetobacter baumannii; conditions: strain 1649
Procedure: as §2

[15] = tested on: A. baumannii 1403; experiment: minimal bactericidal concentration (MBC) assay, strain 1403; format: cell-based; conditions: Acinetobacter baumannii, Table 8, read-out: MBC90 1403
From the text: as §1, §2

CNc1nc(NCc2ccccc2)nc2ccc(C)cc12 [Compound 5, N^2-Benzyl-N^4,6-dimethylquinazoline-2,4-diamine]
MBC [1]: 12 µM (≈ 3.34 µg/mL)
MBEC90 1650 [2]: 21 µM
MBEC90 1651 [3]: 11 µM
HepG2 cell viability ([4]; at 25 μM (highest concentration tested)): 44%
LD50(HepG2) ([4]; human, 48 h): 22 µM
MBEC90 1403 [5]: 13 µM
MBEC90 1652 [6]: 68 µM
survival rate of infected animals [7]: 83%
MBC [8]: 1.5 µM (≈ 0.418 µg/mL)
MIC ([9]; Acinetobacter baumannii, Table 6, representative data for isolate 1646, read-out: MIC): 1 µM (≈ 0.278 µg/mL)
MIC ([9]; Acinetobacter baumannii, strain 1646, Table 2, read-out: 1646 MIC): 2 µM (≈ 0.557 µg/mL)
MIC ([9]; Acinetobacter baumannii, strain 1646, lead quinazolines, Table 8, read-out: MIC 1646): 1 µM (≈ 0.278 µg/mL)
MIC ([9]; strain 1646, Tables 1, 3, 4, 5 and footnotes, read-out: 1646 MIC): 2 µM (≈ 0.557 µg/mL)
MBEC90 1649 [10]: 34 µM
MBEC90 ([11]; Table 6, representative data for isolate 1646): 2.8 µM
reduction in biofilm viability ([11]; at 10 μM, strain 1646): 3 log
MBEC90 1646 ([11]; strain 1646, 90% biofilm eradication, Table 8 and text): 2.8 µM
MIC ([12]; Acinetobacter baumannii, Table 2, read-out: 1652 MIC): 20 µM (≈ 5.57 µg/mL)
MIC ([12]; Acinetobacter baumannii, lead quinazolines, Table 8, read-out: MIC 1652): 20 µM (≈ 5.57 µg/mL)
MIC ([12]; Tables 1, 3, 4, 5 and footnotes, read-out: 1652 MIC): 20 µM (≈ 5.57 µg/mL)
MIC ([13]; Acinetobacter baumannii, Table 2, read-out: 1651 MIC): 10 µM (≈ 2.78 µg/mL)
MIC ([13]; Acinetobacter baumannii, lead quinazolines, Table 8, read-out: MIC 1651): 1 µM (≈ 0.278 µg/mL)
MIC ([13]; Tables 1, 3, 4, 5 and footnotes, read-out: 1651 MIC): 10 µM (≈ 2.78 µg/mL)
MIC ([14]; Acinetobacter baumannii, Table 2, read-out: 1649 MIC): 25 µM (≈ 6.96 µg/mL)
MIC ([14]; Acinetobacter baumannii, lead quinazolines, Table 8, read-out: MIC 1649): 21 µM (≈ 5.85 µg/mL)
MIC ([14]; Tables 1, 3, 4, 5 and footnotes, read-out: 1649 MIC): 25 µM (≈ 6.96 µg/mL)
MBC [15]: 30 µM (≈ 8.35 µg/mL)
